{"source": "paper PMC6463023", "about": "“Epigenetic Changes at the Birc5 Promoter Induced by YM155 in Synovial Sarcoma” (Journal of Clinical Medicine, 2019)", "key": {"survivin [1]": {"test_system": "survivin", "design": "method as in PMID 20816704", "conditions": "cited from earlier work"}, "[2]": {"test_system": "Yamato human synovial sarcoma cell line", "test": "MTT viability assay, Yamato cells, 48 h", "type": "cell-based", "conditions": "48 h treatment", "protocol": "(§1) The human SYO-1, Yamato, and HS-SY-II cell lines were received from Torsten Nielsen at the University of British Columbia. The MoJo cell line was developed as previously described from a consented patient’s synovial sarcoma. Each was maintained in Dulbecco’s modified Eagle medium (DMEM) with 10% fetal bovine serum (FBS) and tested for mycoplasma using MycoAlert Plus (Lonza, Walkersville, MD, USA) every 6 months. Cells were seeded in a 96-well tissue culture dish at 1 × 10^4 cells per well. Twenty-four hours after seeding, serial dilutions of YM155 were applied so that the final concentration ranged from 10 μM to 1 nM. Between 24 to 48 h, MTT at 5 mg/mL was applied, and the cells were allowed to incubate at 37 °C and 5% CO2 for 2.5 h. Formazan crystals were resolubilized in 10% SDS and 0.01 M HCl. Absorbance was measured at 570 nm and normalized to 650 nm. Caspase activity was measured using the Caspase-Glo 3/7 and Caspase-Glo 8 (Promega, G8090, and G8200) assay systems. The manufacturer’s instructions were followed for a 96-well plate assay."}, "[3]": {"test_system": "Mojo human synovial sarcoma cell line", "test": "MTT viability assay, MoJo cells, 48 h", "type": "cell-based", "conditions": "48 h treatment", "protocol": "as §1"}, "[4]": {"test_system": "SYO-1 human synovial sarcoma cell line", "test": "MTT viability assay, SYO-1 cells, 48 h", "type": "cell-based", "conditions": "48 h treatment", "protocol": "as §1"}, "[5]": {"test_system": "HS-SY-II human synovial sarcoma cell line", "test": "MTT viability assay, HS-SY-II cells, 24 h", "type": "cell-based", "conditions": "24 h viability assay", "protocol": "as §1"}, "[6]": {"test_system": "synovial sarcomas expressing Rosa26-LSL-SS18-SSX2", "test": "Tumor growth in genetically engineered mouse model of synovial sarcoma", "type": "in vivo", "protocol": "Mouse experiments were conducted with the approval of the University of Utah’s Institutional Animal Care Committee in accordance with legal and ethical standards established by the National Research Council and published in the Guide for the Care and Use of Laboratory Animals (protocol # 14-01016). The previously described Rosa26-LSL-SS18-SSX2 mice were maintained on a mixed strain background, C57BL/6 and SvJ. Mice were genotyped with the following primers: Rosa26-LSL-SS18-SSX2 (F flox-[…], F wt–[…]-TGG, R-[…]). TATCre was dosed by 10 μL intramuscular injections at 50 μM at 1 month of age.\n(§2) Mice had tumors initiated at 1 month of age. Tumors developed for the next 6 months allowing tumor volumes to reach 500–1000 mm^3. Mice were then subjected to daily intraperitoneal injections of 20 mg/kg of YM155 for 11 days. One mouse with bilateral tumors was censored at day 7. Tumors were measured using digital calipers and volumes were calculated using the equation (L∗W^2)/2. A small portion of the tumor was fixed in 4% paraformaldehyde overnight and then embedded in paraffin. The rest of the tumor was flash frozen in liquid nitrogen and stored at −80 °C until further use.\nThe control mice group with tumor was compared to the YM155 treated tumor group in a single factor ANOVA statistical test. For most comparisons between control and YM155 treated synovial sarcomas, Student’s t-tests were performed."}, "[7]": {"test": "Body weight of mice during YM155 treatment", "type": "in vivo, mouse", "conditions": "20 mg/kg daily for 11 days", "protocol": "as §2"}, "survivin [8]": {"test_system": "survivin", "test": "Survivin immunoblot of treated mouse synovial sarcomas", "type": "in vivo", "conditions": "mouse sarcomas after 11 days of YM155; p = 0.034", "protocol": "as §2\n(§3) Protein was isolated from cells or tissues by incubating in a mild lysis buffer (10 mM Tris-HCl pH 8.1, 10 mM NaCl, 0.5% NP-40, and proteinase inhibitors). The fractions were clarified at 14,000 rpm for 10 min before loading 25–50 μg/sample for gel electrophoresis and transfer to PVDF membrane. Western blots were probed with the following primary antibodies: anti-Survivin (Cell Signaling Technology, 2808, 1:1000), anti-NFκB/p65 (Cell Signaling Technology, 8242, 1:800) anti-GAPDH (Proteintech, 10494-1-AP, 1:1000). The immunoblots were probed secondarily with goat anti-rabbit antibodies conjugated with horse radish peroxidase and bands were detected using Bio-Rad Gel Doc MP imaging station."}, "caspase 3/7": {"test_system": "caspase 3/7", "test": "Caspase-Glo 3/7 activity in HS-SY-II cells", "type": "cell-based, human", "conditions": "24 h incubation", "protocol": "(§4) Cells were seeded in a 96-well tissue culture dish at 1 × 10^4 cells per well. Twenty-four hours after seeding, serial dilutions of YM155 were applied so that the final concentration ranged from 10 μM to 1 nM. Between 24 to 48 h, MTT at 5 mg/mL was applied, and the cells were allowed to incubate at 37 °C and 5% CO2 for 2.5 h. Formazan crystals were resolubilized in 10% SDS and 0.01 M HCl. Absorbance was measured at 570 nm and normalized to 650 nm. Caspase activity was measured using the Caspase-Glo 3/7 and Caspase-Glo 8 (Promega, G8090, and G8200) assay systems. The manufacturer’s instructions were followed for a 96-well plate assay."}, "caspase 8": {"test_system": "caspase 8", "test": "Caspase-Glo 8 activity in HS-SY-II cells", "type": "cell-based, human", "conditions": "24 h incubation", "protocol": "as §4"}, "BIRC5": {"test_system": "BIRC5", "test": "BIRC5 transcript level by PCR normalized to GAPDH", "type": "cell-based, human", "conditions": "HS-SY-II, 24 h, normalized to GAPDH mRNA; p = 0.0006"}, "BIRC5 promoter [9]": {"test_system": "BIRC5 promoter", "test": "ChIP-qPCR of histone marks at the BIRC5 promoter in HS-SY-II cells", "type": "cell-based, human", "conditions": "0.2 μM YM155, 24 h, vs controls", "protocol": "(§5) Mouse tumors were pulverized in a Covaris tissueTUBE attached to a Covaris glass tube (13 × 65 mm) using a hammer and an aluminum block on dry ice. Samples were intermittently placed in liquid nitrogen to maintain molecular interactions. The powderized tissue was resuspended in PBS + protease inhibitors (Sigma, 11836153001, St. Louis, MO, USA) and fixed in 1% formaldehyde for 10 min at room temperature. The cross linking was quenched by adding 125 mM glycine. Samples were washed three times using cold PBS and cold centrifugation at 1000× g for 5 min. Similarly, cells can be fixed in 1% formaldehyde and washed while cells are still adherent to the bottom of the tissue culture dish. Cells in both cases were lysed using cold Farnham cell lysis buffer (5mM PIPES pH 8.0, 85 mM KCl, 0.5% NP-40) with protease inhibitors by incubating on ice for 10 min. Cells were collected and dounced with a glass tube and rod 20 times with a loose rod and 10 times with a tight rod. Samples were filtered through 70 μm filter and centrifuged at 1000× g for 10 min. The supernatant was removed and 1 mL of RIPA lysis buffer (1% NP-40, 0.5% Na deoxycholate, 0.1% SDS/PBS) was added for every 300 mg of tissue or 1 × 10^7 cells and incubated on ice for 10 min. Sonication proceeded in the following manner: 1 mL aliquots were sonicated with a 30 s on and 30 s off cycle for 8 cycles totaling 4 min of sonication time. Sonicated samples were centrifuged at 1400 rpm for 5 min and the supernatant was kept for chromatin immunoprecipitation.\nDynabeads (Invitrogen, 11204D, Carlsbad, CA, USA) were washed in 0.5 mg/mL BSA/PBS three times on a magnet. Sonicated samples were precleared with 30 μL of beads for 1 h at 4 °C. After preclearing, 50 μL of the sample was set aside as the input DNA. Supernatants were transferred to a new tube and 5 μg of primary antibodies were added and incubated overnight at 4 °C. The following antibodies were used for immunoprecipitation. […]"}, "Birc5 promoter [10]": {"test_system": "Birc5 promoter", "test": "ChIP-qPCR of histone marks at the Birc5 promoter in treated mouse synovial sarcomas", "type": "in vivo", "conditions": "mouse synovial sarcomas treated 11 days, vs controls", "protocol": "as §2\nMouse tumors were pulverized in a Covaris tissueTUBE attached to a Covaris glass tube (13 × 65 mm) using a hammer and an aluminum block on dry ice. Samples were intermittently placed in liquid nitrogen to maintain molecular interactions. The powderized tissue was resuspended in PBS + protease inhibitors (Sigma, 11836153001, St. Louis, MO, USA) and fixed in 1% formaldehyde for 10 min at room temperature. The cross linking was quenched by adding 125 mM glycine. Samples were washed three times using cold PBS and cold centrifugation at 1000× g for 5 min. Similarly, cells can be fixed in 1% formaldehyde and washed while cells are still adherent to the bottom of the tissue culture dish. […]"}, "NFκB": {"test_system": "NFκB", "test": "NFκB immunoblot of treated mouse synovial sarcomas", "type": "in vivo", "conditions": "mouse sarcomas after 11 days of YM155; p = 0.015", "protocol": "as §2, §3"}, "[11]": {"test_system": "NFκB binding to the BIRC5 promoter", "test": "ChIP-qPCR for NFκB at the BIRC5 promoter in HS-SY-II cells", "type": "cell-based, human", "conditions": "0.2 μM YM155, 24 h, vs control, p = 0.32", "protocol": "as §5, with “Sonicated samples were centrifuged at 1400 rpm for 5 min and the supernatant was kept for chromatin immunoprecipitation.” left out"}, "synovial sarcoma": {"test_system": "synovial sarcoma", "test": "YM155 in combination with BCL2 inhibitors"}, "[12]": {"design": "method as in PMID 18824702", "conditions": "patients, clinical trials; cited from earlier work"}}, "data": [{"compound": "Cc1ccc(S(=O)(=O)/C=C/C#N)cc1", "note": "[BAY 11-7082]", "values": [{"measurement": "survivin levels upon inhibition of NFκB", "setting": "survivin [1]", "value": "decrease in survivin levels"}]}, {"compound": "COCCn1c2c([n+](Cc3cnccn3)c1C)C(=O)c1ccccc1C2=O", "note": "[YM155, sepantronium bromide]", "values": [{"measurement": "EC50", "setting": "[2]", "value": 22, "unit": "nM"}, {"measurement": "EC50", "setting": "[3]", "value": 62, "unit": "nM"}, {"measurement": "EC50", "setting": "[4]", "value": 103, "unit": "nM"}, {"measurement": "EC50", "setting": "[5]", "value": "2640 ± 140", "unit": "nM"}, {"measurement": "decrease of tumor growth (mean) over 11 days", "setting": "[6]; 20 mg/kg daily intraperitoneal for 11 days, control tumors 1.78-fold increase, p = 0.028", "value": 17, "unit": "%"}, {"measurement": "reduction in tumor volume compared to control treated mice", "setting": "[6]; treated mice with synovial sarcoma", "value": 50, "unit": "%"}, {"measurement": "weight loss in treated mice", "setting": "[7]", "value": "no detectable weight loss"}, {"measurement": "survivin protein level (immunoblot, normalized to GAPDH)", "setting": "survivin [8]", "value": "striking decrease"}, {"measurement": "caspase 3/7 activity", "setting": "caspase 3/7", "value": "increased with higher concentrations"}, {"measurement": "caspase 8 activity", "setting": "caspase 8", "value": "increased with higher concentrations"}, {"measurement": "reduction in normalized BIRC5 expression", "setting": "BIRC5", "value": 39.5, "unit": "%"}, {"measurement": "H3K4me1 at the BIRC5 promoter (ChIP-qPCR)", "setting": "BIRC5 promoter [9]", "value": "a decrease"}, {"measurement": "H3K27ac at the Birc5 promoter (ChIP-qPCR)", "setting": "BIRC5 promoter [9]", "value": "elevated levels"}, {"measurement": "H3K27me3 at the Birc5 promoter (ChIP-qPCR)", "setting": "BIRC5 promoter [9]", "value": "elevated levels"}, {"measurement": "H3K27me3 at the Birc5 promoter (ChIP-qPCR)", "setting": "Birc5 promoter [10]; p = 0.045", "value": "elevated levels"}, {"measurement": "H3K27ac at the Birc5 promoter (ChIP-qPCR)", "setting": "Birc5 promoter [10]; p = 0.14", "value": "elevated levels"}, {"measurement": "NFκB protein level (immunoblot, normalized to GAPDH)", "setting": "NFκB", "value": "striking increase"}, {"measurement": "binding of NFκB to the BIRC5 promoter (ChIP-qPCR)", "setting": "[11]", "value": "unable to detect a difference"}, {"measurement": "synergy of combination with BCL2 inhibitors", "setting": "synovial sarcoma", "value": "minimally synergistic"}, {"measurement": "dose associated with adverse events", "setting": "[12]", "value": "above 4.8 mg/m^2/day"}]}]}
